According to ChEMBL document CHEMBL3872201, “Synthesis and antiproliferative activity of a natural like glycoconjugate polycyclic compound” (2016):
The source made the active and inactive calls. The calls are words filed in the database; no cut-off is given here.

What was measured:
MDA-MB-231 [1] = assay: Cytotoxicity against human MDA-MB-231 cells assessed as reduction in cell number at 5 to 10 uM after 24 to 72 hrs by light microscopic analysis; format: functional, cell-based
[2] = Antiproliferative activity against human KM12 cells after 48 hrs by sulforhodamine B assay; format: functional; details: KM12, 48 h
[3] = Antiproliferative activity against human SW620 cells after 48 hrs by sulforhodamine B assay; format: functional; details: SW-620, 48 h
[4] = Antiproliferative activity against human SF539 cells after 48 hrs by sulforhodamine B assay; format: functional; details: SF-539, 48 h
[5] = Antiproliferative activity against human U251 cells after 48 hrs by sulforhodamine B assay; format: functional; details: U-251, 48 h
[6] = Antiproliferative activity against human SK-MEL-28 cells after 48 hrs by sulforhodamine B assay; format: functional; details: SK-MEL-28, 48 h
[7] = Antiproliferative activity against human SK-MEL-5 cells after 48 hrs by sulforhodamine B assay; format: functional; details: SK-MEL-5, 48 h
[8] = Antiproliferative activity against human OVCAR3 cells after 48 hrs by sulforhodamine B assay; format: functional; details: OVCAR-3, 48 h
[9] = Antiproliferative activity against human NCI-ADR-RES cells after 48 hrs by sulforhodamine B assay; format: functional
[10] = Antiproliferative activity against human 786-0 cells after 48 hrs by sulforhodamine B assay; format: functional; details: 786-0, 48 h
[11] = Antiproliferative activity against human A498 cells after 48 hrs by sulforhodamine B assay; format: functional; details: A498, 48 h
[12] = Antiproliferative activity against human ACHN cells after 48 hrs by sulforhodamine B assay; format: functional
[13] = Antiproliferative activity against human Caki1 cells after 48 hrs by sulforhodamine B assay; format: functional; details: CAKI-1, 48 h
[14] = Antiproliferative activity against human DU145 cells after 48 hrs by sulforhodamine B assay; format: functional; details: DU-145, 48 h
[15] = Antiproliferative activity against human MDA-MB-468 cells after 48 hrs by sulforhodamine B assay; format: functional; details: MDA-MB-468, 48 h
[16] = Cytotoxicity against human MDA-MB-231 cells assessed as inhibition of cell viability at 5 uM after 24 hrs by MTT assay relative to control; format: functional; details: MDA-MB-231, 24 h
MDA-MB-231 [17] = assay: Cytotoxicity against human MDA-MB-231 cells assessed as inhibition of cell viability at 5 to 10 uM up to 72 hrs by MTT assay; format: functional, cell-based
[18] = Cell cycle arrest in human MDA-MB-231 cells assessed as accumulation at G0/G1 phase at 10 uM after 24 hrs by propidium iodide staining based flow cytometric analysis (reference value: 66.5%); format: functional
[19] = Cell cycle arrest in human MDA-MB-231 cells assessed as accumulation at G2/M phase at 5 uM after 48 hrs by propidium iodide staining based flow cytometric analysis (reference value: 19.5%); format: functional
[20] = Cell cycle arrest in human MDA-MB-231 cells assessed as accumulation at subG0/G1 phase at 5 uM after 72 hrs by propidium iodide staining based flow cytometric analysis (reference value: 6.3%); format: functional
[21] = Cell cycle arrest in human MDA-MB-231 cells assessed as accumulation at G2/M phase at 5 uM after 72 hrs by propidium iodide staining based flow cytometric analysis (reference value: 19.7%); format: functional
[22] = Cell cycle arrest in human MDA-MB-231 cells assessed as accumulation at G2/M phase at 10 uM after 72 hrs by propidium iodide staining based flow cytometric analysis (reference value: 19.7%); format: functional
MDA-MB-231 [23] = assay: Effect on cell cycle regulatory protein in human MDA-MB-231 cells assessed as cyclin B1 level at 5 uM after 24 hrs by Western blot analysis relative to control; format: functional
MDA-MB-231 [24] = assay: Effect on cell cycle regulatory protein in human MDA-MB-231 cells assessed as cdc2 level at 5 uM after 24 hrs by Western blot analysis relative to control; format: functional
MDA-MB-231 [25] = assay: Effect on cell cycle regulatory protein in human MDA-MB-231 cells assessed as p21 level at 5 uM after 24 hrs by Western blot analysis relative to control; format: functional
MDA-MB-231 [26] = assay: Effect on cell cycle regulatory protein in human MDA-MB-231 cells assessed as p21 level at 5 uM after 48 hrs by Western blot analysis relative to control; format: functional
[27] = read-out: LC50 (the source's name)

With C=C1c2c(C)nn(-c3ccc(C#CCO[C@@H]4O[C@H](CO)[C@@H](O)[C@H](O)[C@H]4O)cc3)c2N(C)C23CC1C1(C)c4c(C)nn(-c5ccc(C#CCO[C@@H]6O[C@H](CO)[C@@H](O)[C@H](O)[C@H]6O)cc5)c4N(C)C(C)(CC12)C3 (some centres undefined) the Activity (MDA-MB-231 [1]) was “Active”, the GI50 [2] was 1440 nM and the TGI [2] was 2900 nM. The CC50 [2, 27] was 5.84 µM, the GI50 [3] was 1720 nM and the TGI [3] was 3.77 µM. It also gave a CC50 [3, 27] of 8.29 µM, a GI50 [4] of 1780 nM and a TGI [4] of 3.33 µM. It also gave a CC50 [4, 27] of 6.22 µM, a GI50 [5] of 1190 nM and a TGI [5] of 2590 nM. The CC50 [5, 27] was 5.61 µM, the GI50 [6] was 1900 nM and the TGI [6] was 3.52 µM. The CC50 [6, 27] was 6.5 µM, the GI50 [7] was 1380 nM and the TGI [7] was 2710 nM. For the same compound, the CC50 [7, 27] was 5.31 µM, the GI50 [8] was 1520 nM and the TGI [8] was 3.8 µM. It also gave a CC50 [8, 27] of 9.49 µM, a GI50 [9] of 5.43 µM and a TGI [9] of 47 µM. It also gave a CC50 [9, 27] of 100 µM, a GI50 [10] of 2660 nM and a TGI [10] of 7.78 µM. It also gave a CC50 [10, 27] of 29.6 µM, a GI50 [11] of 1500 nM and a TGI [11] of 3.18 µM. It also gave a CC50 [11, 27] of 6.72 µM, a GI50 [12] of 2420 nM and a TGI [12] of 10.6 µM. The CC50 [12, 27] was 32.5 µM, the GI50 [13] was 2810 nM and the TGI [13] was 11.6 µM. It also gave a CC50 [13, 27] of 49 µM, a GI50 [14] of 1970 nM and a TGI [14] of 5.16 µM. It also gave a CC50 [14, 27] of 17.3 µM, a GI50 [15] of 1340 nM and a TGI [15] of 2730 nM. The CC50 [15, 27] was 5.57 µM, the inhibition at 5 µM [16] was 65% and the inhibition (MDA-MB-231 [17]) was “Active”. The Activity [18] was 52%, the Activity [19] was 30.6% and the Activity [20] was 4%. For the same compound, the Activity [21] was 18.7%, the Activity [22] was 31.1% and the “fold change (FC)” value (MDA-MB-231 [23]) was 0.9. For the same compound, the “fold change (FC)” value (MDA-MB-231 [24]) was 0.9, the “fold change (FC)” value (MDA-MB-231 [25]) was 0.1 and the “fold change (FC)” value (MDA-MB-231 [26]) was 0.2.
